In data set [1] the target is T1, human URAT1 (Homo sapiens, UniProt Q96S37).
T1 sequence (Q96S37 1-553): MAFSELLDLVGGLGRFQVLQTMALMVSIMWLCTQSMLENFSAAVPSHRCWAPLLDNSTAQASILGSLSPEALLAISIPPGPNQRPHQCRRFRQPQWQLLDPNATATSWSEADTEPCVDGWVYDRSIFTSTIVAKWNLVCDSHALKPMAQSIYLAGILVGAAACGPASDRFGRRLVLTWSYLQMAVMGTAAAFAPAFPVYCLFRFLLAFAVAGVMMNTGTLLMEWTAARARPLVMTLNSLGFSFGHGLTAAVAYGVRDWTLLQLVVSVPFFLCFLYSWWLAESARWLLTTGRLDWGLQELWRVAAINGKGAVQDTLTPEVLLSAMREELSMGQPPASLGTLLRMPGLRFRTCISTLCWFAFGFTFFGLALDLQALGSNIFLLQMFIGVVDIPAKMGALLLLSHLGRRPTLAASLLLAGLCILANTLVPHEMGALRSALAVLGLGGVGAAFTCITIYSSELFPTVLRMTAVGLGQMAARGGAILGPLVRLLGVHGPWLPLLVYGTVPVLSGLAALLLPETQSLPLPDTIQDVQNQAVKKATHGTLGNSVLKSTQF
To be noted: for Fold more potent than parent lesinurad (URAT1 inhibition): ratio of IC50 vs lesinurad, in vitro URAT1 inhibitory assay.
Protocol: After 48 h, when the HEK293-URAT1 cells were grown to confluence, the cells were treated by 0.25% trypsin for 1–2 min. Thereafter, the digested cells were diluted to a density of 1.5 × 10^5/mL and inoculated into the 24-well cell culture plates for about 48 h. The HEK293-URAT1 cells were pre-incubated for 10 min in HBSS (Cl^− free) and then incubated in the uptake solution (PBS) containing 5 μM [8-^14C]uric acid (2 μCi/mL) with or without the tested compounds (at a series of concentrations). […] After that, 500 μL of cell lysis was transferred to scintillation vials and solubilized with scintillation solution. The radioactivity in the cells was measured by a liquid scintillation counter (PerkinElmer, Waltham, MA, USA).

This is an account of results in PMC6274368 (Molecules, 2016).

Turning to `CC(C)c1ccc(-n2c(Br)nnc2CCC(=O)[O-])c2ccccc12.[Na+]` [Compound 1k, Sodium 3-(5-bromo-4-(4-isopropylnaphth-1-yl)-4H-1,2,4-triazol-3-yl)propionate], the melting point is 194 °C (dec.). The compound further displayed an IC50 in data set [1] of 1.1 ± 0.21 µM. In data set [1], `O=C(O)CCc1nnc(Br)n1Cc1ccc(Br)c2ccccc12` [Compound 1o, Sodium 3-(5-bromo-4-((4-bromonaphth-1-yl)methyl)-4H-1,2,4-triazol-3-yl)propionate] came in with an IC50 of 0.61 ± 0.07 µM. Compound `O=C([O-])CCc1nnc(Br)n1-c1cccc2ccccc12.[Na+]` [Compound 1g, Sodium 3-(5-bromo-4-(naphth-1-yl)-4H-1,2,4-triazol-3-yl)propionate] displayed a melting point of 182 to 184 °C. Half-maximal inhibition in data set [1] (IC50) was put at 10.5 ± 1.4 µM. On the same counts, the results for `COc1nnc(CCC(=O)[O-])n1-c1ccc(C2CC2)c2ccccc12.[Na+]` [Compound 1e, Sodium 3-(4-(4-cyclopropylnaphth-1-yl)-5-methoxy-4H-1,2,4-triazol-3-yl)propionate] are 133 °C (dec.) and over 100 µM.

For `O=C([O-])CCCc1nnc(Br)n1Cc1ccc(Br)c2ccccc12.[Na+]` [Compound 1q, Sodium 4-(5-bromo-4-((4-bromonaphth-1-yl)methyl)-4H-1,2,4-triazol-3-yl)butanoate], in data set [1], the IC50 was found to be 0.23 ± 0.05 µM and the “Fold more potent than parent lesinurad (URAT1 inhibition)” value is on record as 31 fold. Regarding `O=C([O-])CCc1nnc(Br)n1CCc1ccc(Br)c2ccccc12.[Na+]` [Compound 1p, Sodium 3-(5-bromo-4-(2-(4-bromonaphth-1-yl)ethyl)-4H-1,2,4-triazol-3-yl)propionate], the melting point is 167 °C (dec.). In data set [1], this compound displayed an IC50 of 34.7 ± 4.9 µM. For `COc1ccc(-n2c(Br)nnc2CCC(=O)[O-])c2ccccc12.[Na+]` [Compound 1l, Sodium 3-(5-bromo-4-(4-methoxynaphth-1-yl)-4H-1,2,4-triazol-3-yl)propionate], in that order: 211 °C (dec.) and 36.6 ± 5.3 µM.

Take `O=C([O-])CCc1nnc(Br)n1-c1ccc(Br)c2ccccc12.[Na+]` [Compound 1n, Sodium 3-(5-bromo-4-(4-bromonaphth-1-yl)-4H-1,2,4-triazol-3-yl)propionate]: the melting point was 204 °C (dec.). The compound further registered an IC50 in data set [1] of 0.85 ± 0.12 µM. On the same counts, the results for `CCc1ccc(-n2c(Br)nnc2CCC(=O)[O-])c2ccccc12.[Na+]` [Compound 1i, Sodium 3-(5-bromo-4-(4-ethylnaphth-1-yl)-4H-1,2,4-triazol-3-yl)propionate] are 198 °C (dec.) and 8.4 ± 0.98 µM. Take `O=C([O-])CCc1nnc(Br)n1-c1ccc(C2CC2)c2ccccc12.[Na+]` [Compound 1c, Sodium 3-(5-bromo-4-(4-cyclopropylnaphth-1-yl)-4H-1,2,4-triazol-3-yl)propionate]: in data set [1], the IC50 was 2.4 ± 0.15 µM and the “Fold more potent than parent lesinurad (URAT1 inhibition)” value is on record as “three”. On to `CCOc1ccc(-n2c(Br)nnc2CCC(=O)[O-])c2ccccc12.[Na+]` [Compound 1m, Sodium 3-(5-bromo-4-(4-ethoxynaphth-1-yl)-4H-1,2,4-triazol-3-yl)propionate], for which the melting point is 194 °C (dec.). This compound registered an IC50 in data set [1] of 11.2 ± 1.3 µM. For `O=C([O-])CCc1nncn1-c1ccc(C2CC2)c2ccccc12.[Na+]` [Compound 1a, Sodium 3-(4-(4-cyclopropylnaphth-1-yl)-4H-1,2,4-triazol-3-yl)propionate], in that order: 140 °C (dec.) and over 100 µM. Regarding `CCOc1nnc(CCC(=O)[O-])n1-c1ccc(C2CC2)c2ccccc12.[Na+]` [Compound 1f, Sodium 3-(4-(4-cyclopropylnaphth-1-yl)-5-ethoxy-4H-1,2,4-triazol-3-yl)propionate], the melting point was 101.5 °C (dec.). Moreover, inhibition in data set [1] was half-maximal at 9.1 ± 1.2 µM (IC50). For `O=C([O-])CCc1nnc(I)n1-c1ccc(C2CC2)c2ccccc12.[Na+]` [Compound 1d, Sodium 3-(4-(4-cyclopropylnaphth-1-yl)-5-iodo-4H-1,2,4-triazol-3-yl)propionate], in that order: 158 °C (dec.) and 8.8 ± 1 µM.

`Cc1ccc(-n2c(Br)nnc2CCC(=O)[O-])c2ccccc12.[Na+]` [Compound 1h, Sodium 3-(5-bromo-4-(4-methylnaphth-1-yl)-4H-1,2,4-triazol-3-yl)propionate]: the melting point is 155 °C (dec.). This compound gave an IC50 in data set [1] of 12.6 ± 1.6 µM. Take `O=C([O-])CCc1nnc(Cl)n1-c1ccc(C2CC2)c2ccccc12.[Na+]` [Compound 1b, Sodium 3-(5-chloro-4-(4-cyclopropylnaphth-1-yl)-4H-1,2,4-triazol-3-yl)propionate]: the melting point was 135 °C (dec.). Moreover, half-maximal inhibition in data set [1] (IC50) was put at 6.3 ± 0.74 µM.

As to `O=C([O-])CCCCc1nnc(Br)n1Cc1ccc(Br)c2ccccc12.[Na+]` [Compound 1r, Sodium 5-(5-bromo-4-((4-bromonaphth-1-yl)methyl)-4H-1,2,4-triazol-3-yl)pentanoate], the melting point lay within 146 to 149 °C. This compound also gave an IC50 in data set [1] of 1.24 ± 0.17 µM.

With `CCCc1ccc(-n2c(Br)nnc2CCC(=O)[O-])c2ccccc12.[Na+]` [Compound 1j, Sodium 3-(5-bromo-4-(4-n-propylnaphth-1-yl)-4H-1,2,4-triazol-3-yl)propionate], the melting point is 183 °C (dec.). For the same compound, the IC50 in data set [1] came out at 8.3 ± 1.1 µM.

The IC50 is the midpoint of a concentration-inhibition curve. Higher therefore signals a need for much substance. What is called melting point is the temperature of the solid-liquid transition.
